In PMC9688798, “Dual-Wavelength Fluorescence Polarization Immunoassay for Simultaneous Detection of Sulfonamides and Antibacterial Synergists in Milk” (Biosensors, 2022):
In brackets after ≈: the same amount, converted by molar mass.

Experiments:
mAb 10E6 [1] = assay: FPIA tracer-antibody binding, antibody dilution and SMZ competition with mAb 10E6; conditions: λex/λem 480/535 nm, working concentration
Method: For single format FPIA, 70 μL/well of a standard analyte solution, 70 μL/well of tracer, and 70 μL/well mAb were added to the 96-well low-adsorption microplate. After incubation for 2 min in the dark, FP values were measured at λex 480 nm and λem 535 nm for the SAs tracers (SADMPM-EDF, SADMPM-BDF, and SADMPM-HDF) or at λex 620 nm and λem 688 nm for the ASGs tracers (HaptenA-DSCA, HaptenA-DSCH, and HaptenA-AF647). For DWFPIA detection, 70 μL/well standard cocktail solutions were mixed with 70 μL/well of tracer cocktail solutions in the working dilution and 70 μL/well of mAb cocktail solutions in the working dilution. […]
In DWFPIA, we mainly focused on three analytical parameters to select the optimum antibody–tracer pairs, including the half-maximal inhibitory concentration (IC50), the detection window (δmP = mPmax − mPmin), and the titer of the mAbs. […] The IC50 of DWFPIA based on the antibody–tracer pairs was assessed according to standard curves, as described in Section 2.3.3. δmP was the difference between the observed maximum FP value of the tracer bound to a saturating amount of antibody (mPmax) and the observed minimum FP value of the free tracer (mPmin). […] In addition, the binding abilities of the tracers and mAbs were assessed. […] According to the antibody dilution curve, the titer of the mAbs utilized for each tracer that satisfied the δmP criterion was calculated. […]

[2] = tested on: cocktail mAbs of 10E6 and 9C9; assay: Nonspecific binding analysis with cocktail mAbs; conditions: λex/λem 480/535 nm, working concentration
Method: The detection system of DWFPIA consists of two distinct fluorescence signals; moreover, the interference between the short-wavelength fluorescein (EDF/BDF/HDF) and the long-wavelength fluorescein (DSCA/DSCH/AF647) could be ignored, according to our previous studies. Furthermore, the nonspecific binding was analyzed by comparing the FP changes of each tracer (or the tracer cocktail) upon the addition of the free, specific, non-specific, and cocktail mAbs at working concentrations. […] At 620 nm/688 nm, the binding of the tracer HaptenA-DSCA and its corresponding antibody mAb 9C9 was not affected by the presence of non-specific mAb 10E6, as shown in Figure 3A.

mAb 10E6 [3] = assay: DWFPIA for SAs (tracer SADMPM-HDF, λex 480 nm/λem 535 nm); format: binding; conditions: for IC50: 480 nm/535 nm
Method: (§1) For single format FPIA, 70 μL/well of a standard analyte solution, 70 μL/well of tracer, and 70 μL/well mAb were added to the 96-well low-adsorption microplate. After incubation for 2 min in the dark, FP values were measured at λex 480 nm and λem 535 nm for the SAs tracers (SADMPM-EDF, SADMPM-BDF, and SADMPM-HDF) or at λex 620 nm and λem 688 nm for the ASGs tracers (HaptenA-DSCA, HaptenA-DSCH, and HaptenA-AF647). For DWFPIA detection, 70 μL/well standard cocktail solutions were mixed with 70 μL/well of tracer cocktail solutions in the working dilution and 70 μL/well of mAb cocktail solutions in the working dilution. After incubation for 2 min in the dark, the corresponding signals of the tracers were collected simultaneously.
(§2) The procedure to develop the standard curves of DWFPIA for the simultaneous detection of SMZ and TMP was follows: the standard cocktail solutions were prepared by mixing an equal quantity of the standard of SMZ and TMP. Subsequently, the optimum two tracers for each mAbs were added with equal volumes, and then mixed with the two mAbs against SMZ and TMP. The other steps followed the above protocol for FPIA. […] Y = (A − D)/[1 + (X/C) ^B] + D(1) where Y represents the FP value for the corresponding different concentrations of the standard (analyte); A and D represent the asymptotic maximum and minimum of the FP values, respectively; and B is the slope of the curve at the inflection point. C is the IC50 value that defines the standard concentration of SMZ or TMP (analyte) at 50% tracer binding, and X is SMZ/TMP in various concentrations. Furthermore, IC20–IC80 was calculated as the detectable range of the DWFPIA. According to the following equation, the cross reactivity (CR) of the DWFPIA was acquired as follows:CR= (IC50 of SMZ or TMP)/(IC50 of analyte compound) × 100%(2)
(§3) To obtain a sensitive FPIA, the effects of some physicochemical conditions on DWFPIA were evaluated by comparing the δmP/IC50 ratios under various conditions, including pH and organic solvents. Based on the optimal antibody–tracer pairs, pH values of 6.0, 7.0, 8.0, and 9.0 were tested and the other parameters of the assay remain unchanged. To clarify the effects of organic solvents on the development of DWFPIA, various concentrations of methanol and acetonitrile were tested, that is, 0%, 2.5%, 5%, 10%, 20%, and 30% (v/v) for methanol and 0%, 2.5%, 5%, 10%, and 20% (v/v) for acetonitrile. SMZ and TMP were used as the reference analyte in DWFPIA optimization to construct standard curves, seperately.

mAb 9C9 = assay: DWFPIA for ASGs (tracer HaptenA-DSCA, λex 620 nm/λem 688 nm); format: binding
Method: as §1, §2, §3

[4] = final concentration of 10% acetonitrile

## Cc1nc(NS(=O)(=O)c2ccc(N)cc2)nc(C)c1CCCCC(=O)NCCCCCCNC(=S)Nc1ccc2c(c1)C(=O)OC21c2ccc(O)cc2Oc2cc(O)ccc21 [SADMPM-HDF]
mAb 10E6 [1]
  Fluorescence Polarization, tracer and mAb 10E6: 178.6 mP
[2]
  Fluorescence Polarization, tracer and cocktail mAbs: 178.8 mP

## Cc1cc(C)nc(NS(=O)(=O)c2ccc(N)cc2)n1 [SMZ, Sulfamethazine]
mAb 10E6 [3]; 10% final acetonitrile concentration
  δmP: < 80 mP
mAb 10E6 [3]; analyte in mixed format (standard cocktail)
  IC50: 4.67 ng/mL (≈ 16.8 nM)
mAb 10E6 [3]; analyte in single format, tracer and mAb cocktail
  IC50: 4.55 ng/mL (≈ 16.3 nM)
mAb 10E6 [3]; cross reactivity = IC50 of SMZ / IC50 of analyte × 100%
  CRs: 100%

## COc1cc(Cc2cnc(N)nc2N)cc(OC)c1OC [TMP, Trimethoprim]
mAb 9C9; analyte in mixed format (standard cocktail), 620 nm/688 nm
  IC50: 1.12 ng/mL (≈ 3.86 nM)
mAb 9C9; analyte in single format, tracer and mAb cocktail, 620 nm/688 nm
  IC50: 1.06 ng/mL (≈ 3.65 nM)
mAb 9C9; cross reactivity = IC50 of TMP / IC50 of analyte × 100%
  CRs: 100%
mAb 9C9; [4]
  IC50: 1.7 ng/mL (≈ 5.86 nM)
  δmP: greater than 80 mP
mAb 9C9; without acetonitrile (start of the change)
  IC50: 1.1 ng/mL (≈ 3.79 nM)
